Data as given in USRE43615E1, “Method for controlling the yeast-to-filamentous growth transition in fungi” (priority 2007, dated 2012).

Legend:
[1] = tested on: C. albicans conditional pseudohyphal mutant (grr1/grr1, MET3p-driven GRR1) yeast-to-pseudohypha transition; assay: Inhibition of yeast-to-pseudohypha transition in optical microplates, monitored by microscopy; format: cell-based, Candida albicans
Description: (§1) A simple in vitro assay system was designed to detect inhibition of the yeast-to-filamentous growth transition in C. albicans. In this assay, C. albicans cells are first grown under conditions that maintain them in a yeast growth form. The yeast-form cells are then transferred to the wells of an optical microplate containing (i) a medium that induces either the yeast-to-hypha transition (in wild type cells) or the yeast-to-pseudohypha transition (in a conditional pseudohyphal mutant strain) and (ii) varying concentrations of BH3I-1 (typically 0, 10, 30, 50, 100 and 200 μM BH3I-1). The plates are incubated for up to six hours at 37° C. (to test for the hyphal transition) or up to 24 hours 30° C. (to test for the pseudohyphal transition). The transition to filamentous growth (or lack thereof) is monitored in the optical microplates directly with a Nikon TE200 inverted microscope.
(§2) C. albicans SC3514 was used as the “wild type” strain to monitor the yeast-to-hypha transition. A “conditional pseudohyphal mutant” strain was used to monitor the yeast-to-pseudohypha transition. The conditional strain harbors deletions of both native GRR1 alleles plus an introduced wild type copy of GRR1 under the control of the regulatable MET3 promoter. Deletion of GRR1 was previously found to cause pseudohyphal growth.
(§3) Standard yeast growth media were used for these experiments. To maintain wild type cells in the yeast-form, cells were grown in YPD medium (1% Yeast Extract, 2% Peptone and 2% Dextrose) at 30° C. To induce hyphal growth in the wild type strain, cells were transferred to Spider medium (1% Nutrient broth, 1% mannitol, […]) at 37° C. or to Lee's medium (0.5% (NH4)SO4, 0.02% MgSO4, 0.5% NaCl, 1.25% glucose, supplemented with alanine, leucine, lysine, ornithine, phenylalanine threonine and biotin) at 37° C. To maintain the conditional pseudohyphal mutant strain in the yeast-form, cells were grown in YNB medium (Yeast Nitrogen Base, ammonium sulfate, succinic acid supplemented with the appropriate amino acids) at 30° C. […]

[2] = tested on: C. albicans SC3514 (wild type) yeast-to-hypha transition; assay: Inhibition of yeast-to-hypha transition in optical microplates, monitored by microscopy; format: cell-based, Candida albicans
Description: as §1, §2, §3

CC(C)C(C(=O)O)N1C(=O)C(=Cc2ccc(Br)cc2)SC1=S (stereo not drawn) [BH3I-1, 5-(p-Bromobenzylidine)-α-isopropyl-4-oxo-2-thioxo-3-thiozolidineacetic acid]
yeast-to-pseudohypha transition of treated cells ([1]; conditional pseudohyphal mutant transferred from YNB medium to YNB plus methionine/cysteine medium): failed to undergo the yeast-to-pseudohypha transition
MIC for the yeast-to-pseudohypha transition ([1]; conditional pseudohyphal mutant, YNB plus methionine/cysteine medium, 30° C.): 100 µM
growth of treated cells in pseudohyphal-inducing medium ([1]; conditional pseudohyphal mutant, pseudohyphal-inducing medium): continued to divide as yeast cells
minimum inhibitory concentration (MIC) for the yeast-to-hypha transition ([2]; wild type SC3514, both hyphal-inducing media (Spider medium, Lee's medium), 37° C.): 50 to 100 µM
growth of treated cells in hyphal-inducing media ([2]; wild type SC3514, hyphal-inducing media): continued to divide as yeast cells
yeast-to-hypha transition of treated cells ([2]; wild type SC3514 transferred from YPD medium to Spider medium or Lee's medium): failed to undergo the yeast-to-hypha transition
